What was measured:
[1] = system: cells; conditions: WST-1
Method: SH-SY5Y cells were washed twice in warm Dulbecco's phosphate-buffered saline (DPBS) and incubated in 1 ml DMEM containing 0.5 mg (3-[4,5-dimethylthiazol-2-yl]-2,5-diphenyltetrazolium bromide) (MTT or WST; Molecular Probes, Eugene, OR) for 2-3 h at 37° C. and 5% CO2. The medium was aspirated and the cells were washed twice with pre-warmed DPBS. The formazan salts were dissolved in 1 ml pure ethanol before use. Cells were homogenized by repetitive pipetting and centrifuged for 5 min at 4500 rpm, and the supernatant collected. Absorbance was read against an ethanol blank at 590 nm.

[2] = system: Akt Ser 473 phosphorylation in N2a cells; assay: Insulin sensitization at subthreshold insulin in N2a cells; conditions: insulin 3 nM, 15 min; PS48 0.1 to 100 μM, 2 hrs
[3] = system: transgenic mice; assay: Contextual and cued fear conditioning; type: in vivo, mouse; conditions: 16-month-old Tg mice; no significant changes
Method: Next, a series of experiments was performed to assess contextual and cued fear conditioning. 16-month-old mice WT, TG w/vehicle, and TG w/PS48 were first habituated to establish activity levels (300 sec), then presented 3 shock-tone pairings, followed by probes of contextual and cued fear memory. Prior to conditioning to the tone and foot shock, mice in all groups experienced very low levels of freezing (Baseline Freezing Day 1) (FIG. 14A) and the expected freezing to the shock (FIG. 14B).
After the conditioning procedure, when mice were placed back in the same context but without tone or shock (Day 2), freezing was measured over 8 minutes, the last 4 minutes were quantified.
On Day 3 the context was changed for 2 minutes (12 bins) and mice were exposed to a continuous tone (cue) used during conditioning for 8 minutes. […] Freezing % was quantified as the number of 10-sec epochs in which there was no beam break over the total number of epochs in the 4-minute period (24). […] Sec FIG. 14D.

[4] = system: phospho-GSK (GSK3α/β) in SH-SY5Y cells; assay: Cellular phospho-GSK levels in SH-SY5Y cells; type: cell-based; conditions: PS48 1 μM 0 to 2 hours; 0-100 μM 20 min
Method: FIG. 8B. PS48 over time (1 μM; 0 to 2 hours) and concentration (20 min; 0-100 μM) was applied to SH-SY5Y cells. No changes in cellular phospho-GSK levels were observed.

[5] = system: CREB phosphorylation (pS133) in SH-SY5Y cells; assay: Endogenous p-CREB levels in Aβ42-expressing SH-SY5Y cells; conditions: PS48 50 nM; insulin 250 ng/ml 30 min
Method: Whole cell extracts were fractionated by Western and probed with monoclonal anti-pCREB pS133. […] All cells were stimulated with insulin 250 ng/ml for 30 min before harvest.

[6] = system: LTP in rat prefrontal cortical slices; assay: Long term potentiation (LTP) in acute prefrontal cortical slices perfused with Aβ42 oligomers; type: cell-based; conditions: PS48 10 μM
Method: FIG. 3A. […] LTP was measured as % baseline excitatory postsynaptic potential (EPSP) amplitudes. […] Washout restored LTP (4).
Minor modifications were made to previous published procedures (Marshall et al., 2017; Molina-Luna et al., 2009). Deeply anesthetized rats (pentobarbital, 50 mg/kg) were decapitated, their brains quickly removed and immersed in cold (5-7° C.), oxygenated (95% O2/5% CO2) artificial cerebrospinal fluid (ACSF) containing: 126 mM NaCl, 3 mM KCl, 1.25 mM NaH2PO4, 1 mM MgSO4, 2 mM CaCl2, 26 mM NaHCO3, 10 mM dextrose. […] Control treatment was DMSO in ACSF (artificial cerebrospinal fluid, 20 μM bicuculline). Extracellular postsynaptic field potentials were recorded using an AxoClamp2B amplifier (Axon instruments) and EX1 differential amplifier (Dagan), and digitized at 10 kHz. Data was acquired using Igor Pro (Wave Metrics) and Neuromatic (neuromatic.thinkrandom.com). The stimulus intensity eliciting 50% of the maximum amplitude (˜32 μA) was used for all measurements before and after LTP induction. Baseline amplitudes were recorded for 20-30 minutes using single field stimuli applied every 30 sec to layer IV-V using concentric bipolar electrodes. Following a stable baseline period, LTP was induced by two sets of high-frequency stimulation (HFS) at 100 Hz, 60 μA (twice stimulus intensity), for 1 sec, 20 sec apart. Extracellular postsynaptic field potentials were measured from layer II-III using glass micropipettes filled with 0.9% NaCl. The amplitude rather than the slope of evoked FPs was used as a measure of the population excitatory synaptic response because in the neocortex the initial slope was contaminated by antidromic stimulation. LTP values were expressed as percentage of mean baseline EPSP±SEM. Paired two-tailed t-tests were used for statistical analysis.
LTP was measured as % baseline excitatory postsynaptic potential (EPSP) amplitudes. […] Washout restored LTP.

[7] = system: Akt phosphorylation in Aβ42-expressing SH-SY5Y cells; assay: Akt activation in Aβ42-expressing cells (adenovirus/doxycycline, insulin-stimulated); type: cell-based
Method: Adv TetOn and TRE-Aβ42 viruses were described previously (Magrane et al., 2005). […] Insulin (10 or 40 nM) was added in the last 20-30 min before harvest. […] Cell extracts were prepared in lysis buffer [20 mM Tris-HCl (pH 7.5), 150 mM NaCl, 1 mM EDTA, 1 mM Na3VO4, 1% NP-40, 10% Glycerol, 1 mM Na4P2O7, 1 μg/ml Leupeptin, 1 μg/ml Pepstatin A, 1 μg/ml Aprotinin, 0.1 mM phenylmethylsulfonyl fluoride, and protease inhibitor cocktail (Roche)] and were stored at −80° C. until use.
Whole-cell extracts were used directly for western blot analysis (20˜30 μg). Extracts from cultured cells prepared in lysis buffer, were diluted into Laemmli sample buffer, heated (95° C., 10 min), cleared by centrifugation, separated on SDS-PAGE and transferred to PVDF membrane (Immobilon-P; Millipore). Membranes were blocked in TBS containing 0.3% Tween-20 and 5% (wt/vol) non-fat dry milk. After incubation with primary antibodies (18 hr at 4° C. in buffer containing 5% bovine serum albumin (BSA) and 0.05% NaN3), blots were washed and incubated in horseradish peroxidase (HRP)-conjugated secondary antibodies (1:2000 dilution; Cell Signaling). Signals were detected using ECL reagents and quantified using a Kodak Image Station 4000R.
[…]. […] […]. […] […].

[8] = system: C2C12 myotubes; assay: Cell viability (cytoprotection) in C2C12 myotubes
Method: Cell viability as measured by MTT assay.
Mouse C2C12 cells (ATCC) were grown in Dulbecco's modified Eagle medium (DMEM), 20% fetal bovine serum (FBS) (Invitrogen), and maintained for passage below 60% confluence. Cultures at or above 90% confluence were then differentiated in DMEM, 2% adult horse serum (DM) for 3 days before use.

[9] = system: Akt Ser473 phosphorylation in rat primary cortical neurons; assay: Non-amyloid insulin resistance model (palmitate/ceramide) in primary cortical neurons; type: cell-based; conditions: palmitate 300 μM; PS48 100 nM, 24 hrs; insulin 20 nM
Method: FIG. 1B. Non-amyloid-based insulin resistance model. Partial restoration of insulin-induced Akt activation in rat primary cortical neurons exposed to the fatty acid neurotoxin palmitate (300 μM). […] . The same result was obtained in ceramide-treated (50 μM) primary neurons (not shown); *p<0.05). Representative western blot above, n=3 experiments.
SH-SY5Y were left undifferentiated.

[10] = system: APP/PS-1 transgenic mice; assay: Oral glucose tolerance test in APP/PS-1 transgenic mice; type: in vivo, mouse; conditions: TG mice on standard diet, approximately 15.5 months; p<0.05
Method: At the end of phase 2 (active drug) trial, OGTT was administered to the standard diet animals. Animals were approximately 15.5 months at the time of the assay.

Structure (SMILES): O=C(O)/C=C(/CCc1ccc(Cl)cc1)c1ccccc1 [PS48, (Z)-5-(4-chlorophenyl)-3-phenylpent-2-enoic acid]
- LD50 [1]: 250 µM
- phosphorylation of Ser 473 at subthreshold insulin [2]: boosting the phosphorylation of Ser 473 to a 20 nM insulin-equivalence response
- cue fear conditioning, freezing [3]: a trend in cue conditioning paradigm favored PS48 treatment
- resting cellular pGSK levels [4]: no effect
- p-CREB (pS133) levels reduced by Aβ42 expression [5]: mitigated the Aβ42 effect
- LTP (% baseline EPSP amplitude) inhibited by Aβ42 oligomers ([6]; Aβ42 ADDLs 0.5 μM, at the 1-hour mark after Aβ42 application): significantly improved LTP
- LTP (% baseline EPSP amplitude) inhibited by Aβ42 oligomers ([6]; by 3 hours): the beneficial effect had disappeared
- concentration at which the dose-dependent reversal became apparent ([7]; SH-SY5Y and C2C12 myotube cell lines, p<0.01): 100 nM
- reversal of Aβ42 inhibition of insulin-stimulated Akt phosphorylation ([7]; SH-SY5Y and C2C12 myotube data combined, PS48 100 nM and 1 μM (and 10 μM)): significantly reversed the Aβ42 effect
- Akt activation (pT308) in β-amyloid-expressing cells ([7]; SH-SY5Y, PS48 1 μM or insulin 100 nM added 2 hrs before doxycycline, insulin 40 nM 20 min prior to harvest): restored basal Akt activation levels
- basal Akt, compound alone ([7]; SH-SY5Y, PS48 1 μM, no Aβ42 induction): did not over-stimulate
- Akt activity: phosphorylation of GSK3α/β consensus peptide by immunoprecipitated Akt (in vivo-in vitro coupled assay) ([7]; SH-SY5Y, PS48 pre-treatment 50 nM, 2 hrs before doxycycline): prevented the inhibition of peptide phosphorylation by Aβ42
- cytoprotection [8]: same cytoprotection
- inhibition of Akt Ser473 phosphorylation by palmitate [9]: partly reversed inhibition of Akt Ser473 phosphorylation by palmitate
- response to glucose challenge (OGTT) [10]: helped to normalize the glucose response

Reference: patent US12653799B2, “Compositions and methods for treating Alzheimer's disease” (ELEANORE BENNETT CHARITABLE TRUST #2, priority 2021, dated 2026)
